Counter-ions that a name gives are not always drawn.
Key:
[1] = molecular target: T1, WEE1 (Homo sapiens, UniProt P30291); experiment: Selectivity versus WEE1 assay (ADP-Glo enzymatic assay); type: biochemical; settings: banded; for IC50: ADP-Glo, 15 nM WEE1, 60 minutes at 26° C.; for PKMYT1 vs. WEE1 selectivity: fold difference in selectivity for PKMYT1 over WEE1, ">N" = at least in this band but could be higher
T1 construct: purchased Thermo Fisher PR7373A
Procedure: Selectivity versus WEE1 assay: Selectivity was established using the same format as outlined for PKMYT1. After dosing of compounds via the Echo acoustic dispenser—as described above—WEE1 (Thermo Fisher PR7373A) was added to each well at a final concentration of 15 nM in a buffer of 50 mM HEPES (pH 7.5), 10 mM MgCl2, 1 mM EGTA, 0.01% Brij-35, 1% DMSO. 30 µM ATP was added to start the reaction with the final assay volume being 4 μl. The plate was then incubated for 60 minutes at 26° C. before the addition of 4 μl of ADP-Glo Reagent. Following a further 60 minute incubation the assay signal was developed by the addition of 8 μl ADP-Glo Detection Reagent. After 60 minutes the luminescence signal was read on a PHERAStar FS microplate reader (BMG Labtech).
(§1) Data analysis: Data was captured and analysed within the Dotmatics Studies software module where dose response curves were generated and IC50 values determined. Acceptance and verification of data followed strict in-house business rules which are summarised as follows. […] Technical and biological replicates of each compound are routinely tested and replicate IC50 values must fall within 3-fold of each other with dose response curves showing ‘goodness of fit’ r2 values >0.9. Failure to meet any of these defined criteria result in rejection of data.

[2] = molecular target: T2, Human PKMYT1 (Homo sapiens, UniProt Q99640); experiment: PKMYT1 biochemical ADP-Glo enzymatic assay; settings: ADP-Glo; 15 nM PKMYT1 kinase domain, 500 µM ATP, 60 minutes at 26° C.; banded
T2 construct: Human PKMYT1 75-362 was cloned as a TEV cleavable 6xHis fusion; 6xHis (TEV cleavable) (cleaved yes); made in house; host or cells: bacterial cells
T2 sequence (Q99640 75-362): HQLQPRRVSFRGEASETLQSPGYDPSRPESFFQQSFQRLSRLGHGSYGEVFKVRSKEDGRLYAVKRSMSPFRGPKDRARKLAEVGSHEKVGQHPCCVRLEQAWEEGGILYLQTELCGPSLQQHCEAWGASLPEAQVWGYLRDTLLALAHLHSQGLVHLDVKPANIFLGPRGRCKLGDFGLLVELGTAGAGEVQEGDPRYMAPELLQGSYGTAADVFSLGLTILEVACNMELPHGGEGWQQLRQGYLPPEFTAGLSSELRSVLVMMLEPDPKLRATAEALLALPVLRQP
Procedure: Human PKMYT1 75-362 was cloned as a TEV cleavable 6xHis fusion in bacterial cells. After purification on a Ni++HiTrap Chelating HP column, the His-tag was cleaved using TEV protease. Cleaved PKMYT1 was further purified on a Superdex 200 16/600 sizing column. The fractions containing PKMYT1 were pooled and concentrated using an ultrafiltration centrifugal protein concentrator. The purified protein was aliquoted, flash frozen in liquid nitrogen, and stored at −80° C.
PKMYT1 biochemical assay: Inhibition of PKMYT1 was assessed using the ADP-Glo™ Max Detection System from Promega. This assay detects the production of ADP from ATP by PKMYT1 via a two-step process ultimately involving the conversion of ADP to ATP with the latter converted to light in a coupled reaction with luciferase/luciferin. Inhibition of PKMYT1 by small molecule inhibitors results in a retardation of luminescence above background. The intrinsic ATPase activity of PKMYT1 was assessed according to the following protocol. Compounds were dosed into Corning white low volume 384 well assay plates using an Echo acoustic dispenser to generate 10-point curves spanning a 3-fold dilution series. DMSO (no inhibitor) control wells were prepared to benchmark the maximum and minimum signals in the presence and absence of PKMYT1, respectively. The PKMYT1 kinase domain was purified in-house, as described above, and added to the wells at a final concentration of 15 nM in a buffer of 50 mM HEPES (pH 7.5), 10 mM MgCl2, 1 mM EGTA, 0.01% Brij-35, 1% DMSO. 500 µM ATP was added to start the reaction with the final assay volume being 4 μl. The plate was then incubated for 60 minutes at 26° C. before the addition of 4 μl of ADP-Glo Reagent to stop the reaction and deplete the unconsumed ATP. Following a further 60 minute incubation the assay signal was developed by the addition of 8 μl ADP-Glo Max Detection Reagent. After 60 minutes the luminescence signal was read on a PHERAStar FS microplate reader (BMG Labtech).
as §1

T1 sequence (P30291 whole entry): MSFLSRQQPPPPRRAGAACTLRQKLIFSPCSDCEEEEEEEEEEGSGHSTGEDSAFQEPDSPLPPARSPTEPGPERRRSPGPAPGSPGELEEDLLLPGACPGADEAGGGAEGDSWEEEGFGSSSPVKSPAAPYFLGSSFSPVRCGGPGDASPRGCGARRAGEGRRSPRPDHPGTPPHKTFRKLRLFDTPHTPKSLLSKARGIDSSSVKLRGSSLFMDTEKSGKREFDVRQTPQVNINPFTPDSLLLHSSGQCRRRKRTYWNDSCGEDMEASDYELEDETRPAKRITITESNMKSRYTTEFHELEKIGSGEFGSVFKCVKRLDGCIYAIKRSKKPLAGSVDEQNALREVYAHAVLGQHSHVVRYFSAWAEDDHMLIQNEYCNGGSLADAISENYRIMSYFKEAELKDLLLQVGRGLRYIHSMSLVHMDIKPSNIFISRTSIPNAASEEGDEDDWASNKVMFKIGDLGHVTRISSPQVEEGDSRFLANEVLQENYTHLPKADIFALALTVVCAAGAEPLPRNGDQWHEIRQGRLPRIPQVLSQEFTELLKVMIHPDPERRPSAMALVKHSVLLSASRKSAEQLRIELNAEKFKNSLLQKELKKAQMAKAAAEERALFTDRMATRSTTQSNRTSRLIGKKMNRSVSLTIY

SMILES | IC50 [1] | PKMYT1 vs. WEE1 selectivity [1] | IC50 [2]
Cc1ccc(O)c(C)c1NC(=O)c1cnc(Nc2nc3c(s2)COCC3)s1 [BAA-029, 2-(6,7-dihydro-4H-pyrano[4,3-d]thiazol-2-ylamino)-N-(3-hydroxy-2,6-dimethyl-phenyl)thiazole-5-carboxamide] | > 11000 nM | X (100-<1000 fold) | 50 to 1000 nM
Cc1ccc(O)c(C)c1NC(=O)c1cnc(Nc2ccn(C3CCN(C(=O)OC(C)(C)C)CC3)n2)s1 [BAA-031] | > 11000 nM | >X (100-<1000 fold) | 50 to 1000 nM
Cc1ccc(O)c(C)c1NC(=O)c1cnc(Nc2ccn(CC3CCOC3)n2)s1 (stereo not drawn) [BAA-032, N-(3-hydroxy-2,6-dimethyl-phenyl)-2-[[1-(tetrahydrofuran-3-ylmethyl)pyrazol-3-yl]amino]thiazole-5-carboxamide] | 1000 to 11000 nM | W (10-<100 fold) | 50 to 1000 nM
Cc1ccc(O)c(C)c1NC(=O)c1cnc(Nc2ccn(CC(=O)N3CCOCC3)n2)s1 [BAA-033] | > 11000 nM | X (100-<1000 fold) | < 50 nM
Cc1ccc(O)c(C)c1NC(=O)c1cnc(Nc2ccn(CC(=O)N3CCN(C)CC3)n2)s1 [BAA-034] | 1000 to 11000 nM | X (100-<1000 fold) | < 50 nM
Cc1ccc(O)c(C)c1NC(=O)c1cnc(Nc2ccn(CC(=O)NCCN3CCOCC3)n2)s1 [BAA-035] | > 11000 nM | X (100-<1000 fold) | 50 to 1000 nM
Cc1ccc(O)c(C)c1NC(=O)c1cnc(Nc2ccn(C3CCCOC3)n2)s1 (stereo not drawn) [BAA-036, N-(3-hydroxy-2,6-dimethyl-phenyl)-2-[(1-tetrahydropyran-3-ylpyrazol-3-yl)amino]thiazole-5-carboxamide] | > 11000 nM | Z (>5000 fold) | < 50 nM
Cc1ccc(O)c(C)c1NC(=O)c1cnc(Nc2ccn([C@@H]3CCOC3)n2)s1 [BAA-037] | > 11000 nM | >X (100-<1000 fold) | 50 to 1000 nM
Cc1ccc(O)c(C)c1NC(=O)c1cnc(Nc2ccn([C@H]3CCN(C(=O)OC(C)(C)C)C3)n2)s1 [BAA-042] | > 11000 nM | >X (100-<1000 fold) | 50 to 1000 nM
Cc1ccc(O)c(C)c1NC(=O)c1cnc(Nc2ccn([C@@H]3CCN(C(=O)OC(C)(C)C)C3)n2)s1 [BAA-043, tert-Butyl(3R)-3-[3-[[5-[(3-hydroxy-2.6-dimethyl-phenyl)carbamoyl]thiazol-2-yl]amino]pyrazol-1-yl]pyrrolidine-1-carboxylate] | > 11000 nM | >Y (1000-5000 fold) | 50 to 1000 nM
Cc1ccc(O)c(C)c1NC(=O)c1cnc(Nc2nc3ccccc3o2)s1 [BAA-044, 2-(1,3-benzoxazol-2-ylamino)-N-(3-hydroxy-2,6-dimethyl-phenyl)thiazole-5-carboxamide] | > 11000 nM | >X (100-<1000 fold) | 50 to 1000 nM
Cc1ccc(O)c(C)c1NC(=O)c1cnc(Nc2cc3ccccn3n2)s1 [BAA-048, N-(3-hydroxy-2,6-dimethyl-phenyl)-2-(pyrazolo[1,5-a]pyridin-2-ylamino)thiazole-5-carboxamide] | > 11000 nM | Y (1000-5000 fold) | 50 to 1000 nM
Cc1ccc(O)c(C)c1NC(=O)c1cnc(Nc2cc3ccc(Cl)cn3n2)s1 [BAA-051, 2-[(6-chloropyrazolo[1,5-a]pyridin-2-yl)amino]-N-(3-hydroxy-2,6-dimethyl-phenyl)thiazole-5-carboxamide] | > 11000 nM | >X (100-<1000 fold) | 50 to 1000 nM
Cc1ccc(O)c(C)c1NC(=O)c1cnc(Nc2ccn([C@H]3CCCNC3)n2)s1 [BAA-054, N-(3-hydroxy-2,6-dimethyl-phenyl)-2-[1-[(3S)-3-piperidyl]pyrazol-3-yllamino]thiazole-5-carboxamide (hydrochloride)] | > 11000 nM | W (10-<100 fold) | 1000 to 11000 nM
Cc1ccc(O)c(C)c1NC(=O)c1cnc(Nc2ccn(C3CCNCC3)n2)s1 [BAA-055] | > 11000 nM | >X (100-<1000 fold) | 50 to 1000 nM
Cc1ccc(O)c(C)c1NC(=O)c1cnc(Nc2ccn([C@@H]3CCNC3)n2)s1 [BAA-056, N-(3-hydroxy-2,6-dimethyl-phenyl)-2-[[1-[(3R)-pyrrolidin-3-yl]pyrazol-3-yl]amino]thiazole-5-carboxamide hydrochloride] | > 11000 nM | X (100-<1000 fold) | 50 to 1000 nM
Cc1ccc(O)c(C)c1NC(=O)c1cnc(Nc2ccn([C@H]3CCNC3)n2)s1 [BAA-057, N-(3-hydroxy-2,6-dimethyl-phenyl)-2-[1-[(3S)-pyrrolidin-3-yl]pyrazol-3-yllamino]thiazole-5-carboxamide (hydrochloride)] | > 11000 nM | >W (10-<100 fold) | 1000 to 11000 nM

Results, then the compound that gave them:

IC50 [1] | PKMYT1 vs. WEE1 selectivity [1] | IC50 [2] | SMILES
> 11000 nM | >W (10-<100 fold) | 1000 to 11000 nM | Cc1ccc(O)c(C)c1NC(=O)c1cnc(Nc2ncc[nH]2)s1 [BAA-030, N-(3-hydroxy-2,6-dimethyl-phenyl)-2-(1H-imidazol-2-ylamino)thiazole-5-carboxamide]
> 11000 nM | X (100-<1000 fold) | 50 to 1000 nM | COCCn1ccc(Nc2ncc(C(=O)Nc3c(C)ccc(O)c3C)s2)n1 [BAA-040]
1000 to 11000 nM | W (10-<100 fold) | 50 to 1000 nM | Cc1ccc(O)c(C)c1NC(=O)c1cnc(Nc2ccn(CCN)n2)s1 [BAA-053, 2-[[1-(2-Aminoethyl)pyrazol-3-yl]amino]-N-(3-hydroxy-2,6-dimethyl-phenyl)thiazole-5-carboxamide]
> 11000 nM | X (100-<1000 fold) | < 50 nM | Cc1ccc(O)c(C)c1NC(=O)c1cnc(Nc2ccn(CCCC(=O)O)n2)s1 [BAA-058, 4-[3-[[5-[(3-Hydroxy-2,6-dimethyl-phenyl)carbamoyl]thiazol-2-yl]amino]pyrazol-1-yl]butanoic acid]
> 11000 nM | X (100-<1000 fold) | < 50 nM | Cc1ccc(O)c(C)c1NC(=O)c1cnc(Nc2ccn(CC(=O)O)n2)s1 [BAA-059, 2-[3-[[5-[(3-hydroxy-2,6-dimethyl-phenyl)carbamoyl]thiazol-2-yl]amino]pyrazol-1-yl]acetic acid]
> 11000 nM | >X (100-<1000 fold) | 50 to 1000 nM | CCNc1ncc(C(=O)Nc2c(C)ccc(O)c2C)s1 [BAA-060, 2-(ethylamino)-N-(3-hydroxy-2,6-dimethyl-phenyl)thiazole-5-carboxamide]
> 11000 nM | >W (10-<100 fold) | 1000 to 11000 nM | Cc1ccc(O)c(C)c1NC(=O)c1cnc(NCCO)s1 [BAA-062, N-(3-hydroxy-2,6-dimethyl-phenyl)-2-(2-hydroxyethylamino)thiazole-5-carboxamide]
> 11000 nM | >W (10-<100 fold) | 1000 to 11000 nM | COCCNc1ncc(C(=O)Nc2c(C)ccc(O)c2C)s1 [BAA-063, N-(3-hydroxy-2,6-dimethyl-phenyl)-2-(2-methoxyethylamino)thiazole-5-carboxamide]

Reference: US20260297042A1, “BIARYLAMIDE DERIVATIVES AND THEIR USE AS PKMYT1 INHIBITORS” (CANCER RESEARCH TECHNOLOGY LIMITED, priority 2023, published 2026)
